Measurements taken from patent US10167299B2, “1-(3-aminopropyl) substituted cyclic amine compounds, preparation method therefor, and pharmaceutical compositions and uses thereof” (SHANGHAI INSTITUTE OF MATERIA MEDICA, CHINESE ACADEMY OF …, priority 2013, dated 2019).
Converted amounts (≈) assume the structure as drawn.

How the values were obtained:
[1] = system: Salmonella typhimurium strain TA98; assay: Bacterial reverse mutation assay TA98 (-S9); type: cell-based; conditions: TA98, -S9, positive control 20 μg/dish
Description: (§1) The mutagenic effects of compounds 18 and 22 of the present invention on Salmonella typhimurium strains TA98 and TA100 in non-metabolic activation (-S9) condition were determined. Two strains, TA98 and TA100 were chosen in bacterial reverse mutation assay for compounds 18 and 22. 9 doses containing […], negative and positive controls were set in experiments. 3 dishes were used for each dose. The experiment was carried out under -S9 condition.

[2] = target: CCR5 (Homo sapiens (Human), UniProt P51681); assay: Calcium flux inhibition experiment; type: cell-based; conditions: for IC50: HEK293/CCR5-Gα16 cell line, calcium flux, read-out: CCR5 IC50
[3] = system: HIV-1SF162 virus strain; assay: Inhibition activity on TZM-bl cells infected with HIV-1SF162
[4] = system: TZM-bl cells; assay: Cytotoxicity (CC50) in TZM-bl cells; type: cell-based; conditions: TZM-bl cells (Table 3)
[5] = system: HIV-1SF162 virus strain; assay: Inhibition of viral replication in HOS-CD4-CCR5 cells infected with HIV-1SF162; type: cell-based; conditions: Human immunodeficiency virus 1, HOS-CD4-CCR5
Description: (§2) On the day before the test, 1×10^5/ml of HOS-CD4-CCR5 cells were inoculated in 96-well plates with 100 μl for each well. The compound to be tested was subject to 5-fold dilution in 96-well microtiter plate with DMEM complete medium (containing 10% FBS). The starting concentration was 1 μM and six dilutions were obtained. Triplicate wells were set for each dilution and each well contained 100 μl mixture. While wells not containing drugs were set as control. The supernatant was removed and 100 μl of drug was added and incubated for 2 h. Then 100 μl of HIV-1SF162 and HIV-1Ba-L were added to dilute supernatant. The cells were infected for 1 h, free virus was washed out and drug with the same final concentration was added. MVC was used as positive control. The cells were cultured at 37° C. with 5% CO2 for three days. The supernatant was collected, lysed and inactivated with 0.5% Triton X-100. The inhibition effect of drug on HIV-1 replication was detected using p24 antigen capture ELISA method.

[6] = system: HIV-1Ba-L virus strain; assay: Inhibition of viral replication in PBMC infected with HIV-1Ba-L; type: cell-based
Description: (§3) The virus was titrated according to the modified method of Johnson & Byington. Briefly, the HIV-1 stock solution was subject to four-fold dilution in a 96-well plate (ten gradients) sextuplicate for each gradient, while setting six control-wells. Into each well was added 100 μl (5×10^6/ml) PHA-stimulated PBMC cells and final volume per well was 200 μl. The cells were cultured at 37° C. with 5% CO2. On the third day, 100 μl of fresh RPMI-1640 complete medium was supplemented. On the seventh day, the infected supernatant was collected and lysed with 0.5% Triton X100. The p24 antigen was detected by ELISA and TCID50 of virus was calculated according to Reed & Muench method (50% Tissue culture infection dose).
(§4) The compound to be tested was subject to 5-fold dilution in 48-well plate with RPMI-1640 complete medium (containing 10% FBS). The starting concentration was 1 μM, six dilutions were obtained, and each well contained 200 μl mixture. While wells not containing drugs were set as control. Virus (MOI=0.01) was added to 5×10^6/ml of PBMC cells which have been stimulated by PHA for 72 h. After homogeneously mixed, the mixture was immediately added to 48-well plate containing diluted drug and each well was added with 200 μl of mixture. MVC was used as positive control. The cells were cultured at 37° C. with 5% CO2 for seven days (drug with the same concentration was added on the third day). The supernatant was collected, lysed and inactivated with 0.5% Triton X-100. The inhibition effect of drug on HIV-1 replication was detected using p24 antigen capture ELISA method.

[7] = system: HIV-1KM018 virus strain; assay: Inhibition of viral replication in PBMC infected with HIV-1KM018; type: cell-based; conditions: Human immunodeficiency virus 1, PBMC
Description: as §3, with “On the third day, 100 μl of fresh RPMI-1640 complete medium was supplemented.” left out
as §4, with “The” for “The compound to be tested was subject to 5-fold dilution in 48-well plate with RPMI-1640 complete medium (containing 10% FBS). The”, “Virus (MOI=0.01) was added to 5×10^6/ml of PBMC cells which have been stimulated by PHA for 72 h.” left out

[8] = system: HIV-1Ba-L virus strain; assay: Inhibition of viral replication in HOS-CD4-CCR5 cells infected with HIV-1Ba-L; type: cell-based
Description: as §2

[9] = Toxicity test of compounds on HOS-CD4-CCR5 cells (MTT); type: cell-based; conditions: human; HOS-CD4+-CCR5 cells (Table 7)
Description: (§5) The compound to be tested was subject to 5-fold dilution in a 96-well microtiter plate with RPMI-1640 or DMEM complete medium (containing 10% FBS) (Six dilution) triplicate for each dilution and 100 μl for each well. While wells not containing drugs were set as control. Into each well was added 100 μl of 4×10^5/ml PM1, HOS-CD4-CCR5 cells or 100 μl of 5×10^6/ml PHA stimulated PBMC. The cells were cultured at 37° C. with 5% CO2 for three days (PBMC cells were cultured for seven days and 100 μl of fresh RPMI-1640 complete medium was supplemented on the third day). Cytotoxicity was tested with MTT assay. OD values were measured by ELx800 microplate reader. The detection wavelength was 570 nm, and the reference wavelength was 630 nm.

[10] = system: HIV-1SF162 virus strain; assay: Inhibition of viral replication in PBMC infected with HIV-1SF162; type: cell-based
Description: as §3, with “On the third day, 100 μl of fresh RPMI-1640 complete medium was supplemented.” left out
as §4, with “The” for “The compound to be tested was subject to 5-fold dilution in 48-well plate with RPMI-1640 complete medium (containing 10% FBS). The”, “Virus (MOI=0.01) was added to 5×10^6/ml of PBMC cells which have been stimulated by PHA for 72 h.” left out

[11] = Toxicity test of compounds on PBMC cells (MTT); type: cell-based; conditions: human; PBMC cells (Table 4)
Description: as §5

[12] = Cytotoxicity (CC50) in TZM-bl cells; type: cell-based; conditions: human
[13] = target: hERG (Homo sapiens (Human), UniProt Q12809)
Description: CHO-hERG cells which have been incubated overnight were added with sample buffer and incubated for 90 minutes at room temperature in darkness.
The sample buffer was removed and assay buffer was added.
The compound is added to the cell plate and incubated for 20 minutes in darkness.
Cell plate was placed into FDSS. The fluorescence signal was recorded every second for 10 seconds. Exciting buffer was added to the cells at the 10th second and the fluorescence signal was recorded every second for 180 seconds

[14] = system: CCR5 protein; assay: Thermal stability of protein test (CPM-assay); type: binding; conditions: thermal stability of CCR5 protein with compound, CPM dye
Excerpt: Experimental theory: many cysteines are present in CCR5 protein sequence. Cysteines located in loop region form disulfide bonds to stabilize the tertiary structure of the protein. Some free cysteines in reduced state are located in the transmembrane region. Under excitation by incident light of 387 nm, the combination of free sulfhydryl and fluorescent dye CPM can emit excitation light of 436 nm. […] The free sulfhydryls originally located in the transmembrane region expose and combine with the fluorescent dye. And then the detector will detect changes in signal enhancement. Therefore, the thermal stability of membrane proteins can be determined according to the temperature (Tm) at the midpoint of changes in signal intensity.
Experimental steps: Upon preliminary purification, the obtained protein solution was transferred into a small concentration tube (100 kd, 500 ul) for concentration (1000 rcf, 12 min, 4° C.). After centrifugation, the concentration tube was taken out and flicked to prevent protein coagulation due to high local concentration. The final concentrated volume was about 50 μl. 117 μl of purified solution (volume is suitable to make the total volume up to 120 μl), 1 μl fluorescent dye cpm (in-house prepared) and 2 μl of concentrated protein solution (the amount of added protein is 3-5 μg according to the calculated concentration of the protein solution and the concentrated volume) were added to 2 ml Ependorf tube and incubated at room temperature for 20 min. And then the mixture was added to the cuvette (Qwan) and put in the testing equipment Cary, wherein the surface of the frosted glass faced out. The temperature was set in the range of 4-90° C. with 1° C. increase per minute and the program was run. Tm value can be obtained by processing the data and graph with a mapping software and can be used to compare the difference of protein thermal stability under different conditions.

[15] = system: Salmonella typhimurium strain TA100; assay: Bacterial reverse mutation assay TA100 (-S9); type: cell-based; conditions: TA100, -S9, positive control 1300 μg/dish
Description: as §1

[16] = TZM-bl cells infected with HIV-1SF162
[17] = Human immunodeficiency virus 1, PBMC
[18] = Human immunodeficiency virus 1, TZM-bl

Sequence of CCR5 (P51681 whole entry): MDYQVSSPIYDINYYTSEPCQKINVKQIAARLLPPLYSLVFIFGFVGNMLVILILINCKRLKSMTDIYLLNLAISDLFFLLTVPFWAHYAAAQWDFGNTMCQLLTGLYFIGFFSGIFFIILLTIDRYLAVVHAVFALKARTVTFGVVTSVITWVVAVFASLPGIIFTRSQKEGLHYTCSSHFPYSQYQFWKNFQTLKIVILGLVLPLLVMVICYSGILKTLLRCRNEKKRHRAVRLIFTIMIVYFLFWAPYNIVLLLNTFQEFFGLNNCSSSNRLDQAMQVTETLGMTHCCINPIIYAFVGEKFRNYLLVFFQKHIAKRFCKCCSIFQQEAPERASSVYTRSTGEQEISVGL
Sequence of hERG (Q12809 whole entry): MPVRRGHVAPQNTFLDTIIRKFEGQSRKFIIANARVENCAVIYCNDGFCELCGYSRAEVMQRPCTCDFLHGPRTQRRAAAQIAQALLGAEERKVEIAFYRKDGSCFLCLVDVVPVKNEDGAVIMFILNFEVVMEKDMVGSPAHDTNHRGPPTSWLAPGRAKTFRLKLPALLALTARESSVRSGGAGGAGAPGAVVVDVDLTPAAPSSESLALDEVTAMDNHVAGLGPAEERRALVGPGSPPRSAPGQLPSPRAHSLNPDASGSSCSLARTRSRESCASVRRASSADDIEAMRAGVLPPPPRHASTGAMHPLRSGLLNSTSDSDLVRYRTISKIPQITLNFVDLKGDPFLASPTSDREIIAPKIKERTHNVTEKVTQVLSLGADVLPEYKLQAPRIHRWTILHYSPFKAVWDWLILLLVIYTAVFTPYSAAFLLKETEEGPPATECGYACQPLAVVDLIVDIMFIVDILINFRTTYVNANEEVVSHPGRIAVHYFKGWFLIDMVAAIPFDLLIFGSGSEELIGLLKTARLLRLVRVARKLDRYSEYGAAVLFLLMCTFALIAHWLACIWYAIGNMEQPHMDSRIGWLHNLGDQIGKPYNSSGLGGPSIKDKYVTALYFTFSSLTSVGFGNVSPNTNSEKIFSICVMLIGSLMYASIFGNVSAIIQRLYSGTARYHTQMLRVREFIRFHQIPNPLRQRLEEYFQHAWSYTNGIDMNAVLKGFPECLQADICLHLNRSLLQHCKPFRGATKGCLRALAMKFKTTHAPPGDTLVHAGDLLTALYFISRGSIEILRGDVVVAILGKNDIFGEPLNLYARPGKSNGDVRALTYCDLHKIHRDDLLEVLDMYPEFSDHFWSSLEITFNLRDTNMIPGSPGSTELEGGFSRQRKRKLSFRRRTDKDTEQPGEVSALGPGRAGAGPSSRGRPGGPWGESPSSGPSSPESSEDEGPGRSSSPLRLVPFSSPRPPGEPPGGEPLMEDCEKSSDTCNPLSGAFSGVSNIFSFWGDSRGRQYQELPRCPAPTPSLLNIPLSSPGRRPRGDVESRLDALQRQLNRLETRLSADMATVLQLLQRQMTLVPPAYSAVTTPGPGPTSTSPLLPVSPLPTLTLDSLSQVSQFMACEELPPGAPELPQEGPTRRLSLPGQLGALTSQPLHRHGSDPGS

O=[N+]([O-])c1ccc2c(c1)Cc1ccccc1-2 [2-Nitroflucrene, reference compound]
number of revertant colonies (Mean ± SD) [1]: 999 ± 145.2

Cc1nnc(C(C)C)n1[C@@H]1C[C@H]2CC[C@@H](C1)N2CC[C@H](NC(=O)C1CCC(F)(F)CC1)c1cccc(F)n1 [Compound 34, 4,4-difluoro-N-[(1S)-3-[exo-3-(3-isopropyl-5-methyl-4H-1,2,4-triazol-4-yl)-8-azabicyclo[3.2.1]octane-8-yl]-1-(6-fluoropyridin-2-yl)propyl]cyclohexane-1-carboxamide]
IC50 [2]: 0.143 µM
EC50 [3, 16]: >40 µg/mL
CC50 [4]: >200 µg/mL

Cc1nnc(C(C)C)n1C1CC2CCC(C1)N2CCC(NC(=O)C1CCC(F)(F)CC1)c1cccs1 (stereo not drawn) [Compound 3, 4,4-difluoro-N-[3-[exo-3-(3-isopropyl-5-methyl-4H-1,2,4-triazol-4-yl)-8-azabicyclo[3.2.1]octane-8-yl]-1-(thiophen-2-yl)propyl]cyclohexane-1-carboxamide]
EC50 [5]: 0.0244 µg/mL (≈ 0.047 µM)
EC50 [6, 17]: 0.0912 µg/mL (≈ 0.176 µM)
therapeutic index (TI) ([6]; PBMC cells infected with HIV-1Ba-L): 3328.9
EC50 [7]: 0.0157 µg/mL (≈ 0.0301 µM)
EC50 [3, 18]: 0.0024 µg/mL (≈ 0.00462 µM)
therapeutic index (TI) [3, 16]: >41666.67
cytotoxicity in vitro and therapeutic index in words, versus positive control compound ([3]; TZM-bl cells infected with HIV-1SF162, conclusion from Table 3): better than positive control compound
therapeutic index (TI) ([8]; HOS-CD4+-CCR5 cells infected with HIV-1Ba-L): 19495
EC50 ([8]; Human immunodeficiency virus 1, HOS-CD4-CCR5): 0.0171 µg/mL (≈ 0.033 µM)
CC50 at 3 days [9]: 334 µg/mL (≈ 643 µM)
EC50 [10, 17]: 0.146 µg/mL (≈ 0.281 µM)
therapeutic index (TI) ([10]; PBMC cells infected with HIV-1SF162): 1874
CC50 at 7 days [11]: 273 µg/mL (≈ 526 µM)
CC50 at 3 days ([12]; TZM-bl cells (Table 3), read-out: CC50): > 100 µg/mL

Cc1sc([C@H](CCN2C3CCC2CC(n2c(C)nnc2C(C)C)C3)NC(=O)C2CCC(F)(F)CC2)c(C)c1C (stereo partly drawn) [Compound 103, 4,4-difluoro-N-[(1S)-3-[exo-3-(3-isopropyl-5-methyl-4H-1,2,4-triazol-4-yl)-8-azabicyclo[3.2.1]octane-8-yl]-1-(3,4,5-trimethylthiophen-2-yl)propyl]cyclohexane-1-carboxamide]
IC50 [13]: 3.47 µM

4,4-difluoro-N-[(1S)-3-[exo-3-(3-isopropyl-5-methyl-4H-1,2,4-triazol-4-yl)-8-azabicyclo[3.2.1]octane-8-yl]-1-(pyridin-3-yl)propyl]cyclohexane-1-carboxamide [Compound 6]
IC50 [2]: 0.0069 µM
calcium influx inhibition effect in words, versus positive control compounds ([2]; conclusion from Table 1): better than the positive control compounds
EC50 [3, 16]: 1.51 µg/mL
therapeutic index (TI) [3, 16]: 66.23
CC50 [4]: >100 µg/mL
Tm (° C.) [14]: 58.56 °C

CC(=O)N[C@@H](CCN1C2CCC1CC(n1c(C)nnc1C(C)C)C2)c1cccs1 (stereo partly drawn) [Compound 12, N-[(1S)-3-[exo-3-(3-isopropyl-5-methyl-4H-1,2,4-triazol-4-yl)-8-azabicyclo[3.2.1]octane-8-yl]-1-(thiophen-2-yl)propyl]acetamide]
hERG inhibition activity in words, versus positive control compounds [13]: better that those of positive control compounds

Cc1nnc(C(C)C)n1C1CC2CCC(C1)N2CC[C@H](NC(=O)C1CCCCC1)c1cccnc1 (stereo partly drawn) [Compound 8, N-[(1S)-3-[exo-3-(3-isopropyl-5-methyl-4H-1,2,4-triazol-4-yl)-8-azabicyclo[3.2.1]octane-8-yl]-1-(pyridin-3-yl)propyl]cyclohexane-1-carboxamide]
hERG inhibition activity in words, versus positive control compounds [13]: better that those of positive control compounds
IC50 [2]: 0.0219 µM
EC50 [3, 18]: 2.69 µg/mL (≈ 5.62 µM)
therapeutic index (TI) [3, 16]: >37.17
CC50 [12]: > 100 µg/mL
Tm (° C.) [14]: 60.61 °C

COS(C)(=O)=O [Methyl methanesulfonate, reference compound]
number of revertant colonies (Mean ± SD) [15]: 1231 ± 146.1
